The results in this text go back to ChEMBL document CHEMBL6092219, “Structure-Based Design of Covalent SARS-CoV-2 Papain-like Protease Inhibitors” (J Med Chem, 2024).

Each structure is given as a SMILES string. pEC50, pIC50, pKi: −log10 of the molar value. Activity calls are given as the source filed them. The rule behind the calls is not given here.

By pIC50 is commonly meant −log10 of the IC50, conventionally taken in molar units. In general, CC50 refers to the concentration at which the toxic effect on the cells reaches its halfway point. In general, pEC50 refers to −log10 of the EC50, conventionally taken in molar units. The half-life is how long it takes for the measured level to halve. A word on the Cmax: it is the peak of the concentration-time curve. A word on the pKi: it is the Ki on a negative log10 scale, so that one unit is a factor of ten.

Data set [1] has as its target T1, Replicase polyprotein 1ab (Severe acute respiratory syndrome coronavirus 2, UniProt P0DTD1). Briefly: Inhibition of SARS-CoV-2 PL protease preincubated for 30 mins followed by substrate addition measured after 3 hrs.
Data set [2] in a line: (§1) Cytotoxicity against African green monkey Vero E6 cells incubated for 48 hrs by Neutral Red method. The format is toxicity, cell-based, Vero C1008. To be noted: chlorocebus sabaeus, Vero E6 cells.
For data set [3], the system named is SARS-CoV-2. In words: microbe, parasite or virus in culture. The format is functional, organism-based, Vero E6. To be noted: Severe acute respiratory syndrome coronavirus 2, Vero C1008, 24 h.
A short description of data set [4]: Metabolic stability in mouse liver microsomes assessed as half life at 1 uM incubated for 60 mins by LC/MS/MS analysis. The format is ADME, Microsome. As to conditions: for half-life at 1 µM: liver microsomes.
The test system of data set [5] is SARS-CoV-2. Briefly: microbe, parasite or virus in culture. To be noted: Severe acute respiratory syndrome coronavirus 2, Caco-2, 24 h. The format is functional, organism-based.
Data set [6] relates to Vero C1008. The description is as §1. The format is toxicity, cell-based. To be noted: chlorocebus sabaeus, vero c1008, 48 h.
Data set [7] relates to SARS-CoV-2. In words: Antiviral activity against wild-type SARS-CoV-2 WA1 infected in human Caco-2 cells expressing hTMPRSS/hACE2 incubated for 48 hrs in presence of CP-100356 by crystal violet staining based analysis. The format is functional, organism-based. To be noted: Severe acute respiratory syndrome coronavirus 2, WA1, Caco-2, 48 h.
The test system of data set [8] is SARS-CoV-2. In words: Antiviral activity against SARS-CoV-2 XBB1.16 infected in human Caco-2 cells expressing hTMPRSS/hACE2 incubated for 48 hrs in presence of CP-100356 by crystal violet staining based analysis. The format is functional, organism-based. As to conditions: Severe acute respiratory syndrome coronavirus 2, XBB1.16, Caco-2, 48 h.
Data set [9] concerns SARS-CoV-2. In words: Selectivity ratio of EC50 for SARS-CoV-2 XBB1.16 infected in human Caco-2 cells expressing hTMPRSS/hACE2 to EC50 for wild-type SARS-CoV-2 WA1 infected in human Caco-2 cells expressing hTMPRSS/hACE2. The format is functional.
The test system of data set [10] is SARS-CoV-2. In words: Selectivity ratio of EC50 for SARS-CoV-2 JN.1 infected in human Caco-2 cells expressing hTMPRSS/hACE2 to EC50 for wild-type SARS-CoV-2 WA1 infected in human Caco-2 cells expressing hTMPRSS/hACE2. The format is functional.
The subject of data set [11] is SARS-CoV-2. In words: Antiviral activity against SARS-CoV-2 JN.1 infected in human Caco-2 cells expressing hTMPRSS/hACE2 incubated for 48 hrs in presence of CP-100356 by crystal violet staining based analysis. The format is functional, organism-based. To be noted: Severe acute respiratory syndrome coronavirus 2, JN.1, Caco-2, 48 h.
Data set [12] can be described thus: Cmax in C57BL/6J mouse at 50 mg/kg, ip measured 0.5 hrs by LC/MS/MS analysis. The format is ADME, organism-based. To be noted: in vivo.
Data set [13] in a line: Cmax in C57BL/6J mouse at 50 mg/kg, po measured 5 hrs by LC/MS/MS analysis. The format is ADME, organism-based. To be noted: in vivo.
Data set [14] in a line: AUClast in C57BL/6J mouse at 50 mg/kg, ip measured 5 hrs by LC/MS/MS analysis. The format is ADME, organism-based. As to conditions: in vivo.
Data set [15] concerns the target T1, Replicase polyprotein 1ab. In words: Inhibition of SARS-CoV-2 PL protease using ISG15-AMC as substrate preincubated for 30 mins followed by substrate addition measured for 1 hr.
In data set [16] the target is Ubiquitin carboxyl-terminal hydrolase 7 (Homo sapiens) (UniProt Q93009). In words: Inhibition of N-terminal polyhis/GST-tagged full-length human USP7 (1 to 1102 residues) expressed in baculovirus infected insect cells using Ub-AMC as substrate upto 100 uM. As to conditions: Insect cell.
Data set [17] concerns the target T1, Replicase polyprotein 1ab. Briefly: Inhibition of SARS-CoV-2 PL protease using Ub-AMC as substrate preincubated for 30 mins followed by substrate addition measured for 1 hr.
Data set [18] concerns the target Ubiquitin carboxyl-terminal hydrolase 14 (Homo sapiens) (UniProt P54578). Briefly: Inhibition of N-terminal 6His-tagged recombinant human USP14 (91 to 494 residues) expressed in Escherichia coli using Ub-AMC as substrate upto 100 uM.

Ubiquitin carboxyl-terminal hydrolase 7 (Homo sapiens), sequence (Q93009 whole entry, looked up, the tested form may be a part): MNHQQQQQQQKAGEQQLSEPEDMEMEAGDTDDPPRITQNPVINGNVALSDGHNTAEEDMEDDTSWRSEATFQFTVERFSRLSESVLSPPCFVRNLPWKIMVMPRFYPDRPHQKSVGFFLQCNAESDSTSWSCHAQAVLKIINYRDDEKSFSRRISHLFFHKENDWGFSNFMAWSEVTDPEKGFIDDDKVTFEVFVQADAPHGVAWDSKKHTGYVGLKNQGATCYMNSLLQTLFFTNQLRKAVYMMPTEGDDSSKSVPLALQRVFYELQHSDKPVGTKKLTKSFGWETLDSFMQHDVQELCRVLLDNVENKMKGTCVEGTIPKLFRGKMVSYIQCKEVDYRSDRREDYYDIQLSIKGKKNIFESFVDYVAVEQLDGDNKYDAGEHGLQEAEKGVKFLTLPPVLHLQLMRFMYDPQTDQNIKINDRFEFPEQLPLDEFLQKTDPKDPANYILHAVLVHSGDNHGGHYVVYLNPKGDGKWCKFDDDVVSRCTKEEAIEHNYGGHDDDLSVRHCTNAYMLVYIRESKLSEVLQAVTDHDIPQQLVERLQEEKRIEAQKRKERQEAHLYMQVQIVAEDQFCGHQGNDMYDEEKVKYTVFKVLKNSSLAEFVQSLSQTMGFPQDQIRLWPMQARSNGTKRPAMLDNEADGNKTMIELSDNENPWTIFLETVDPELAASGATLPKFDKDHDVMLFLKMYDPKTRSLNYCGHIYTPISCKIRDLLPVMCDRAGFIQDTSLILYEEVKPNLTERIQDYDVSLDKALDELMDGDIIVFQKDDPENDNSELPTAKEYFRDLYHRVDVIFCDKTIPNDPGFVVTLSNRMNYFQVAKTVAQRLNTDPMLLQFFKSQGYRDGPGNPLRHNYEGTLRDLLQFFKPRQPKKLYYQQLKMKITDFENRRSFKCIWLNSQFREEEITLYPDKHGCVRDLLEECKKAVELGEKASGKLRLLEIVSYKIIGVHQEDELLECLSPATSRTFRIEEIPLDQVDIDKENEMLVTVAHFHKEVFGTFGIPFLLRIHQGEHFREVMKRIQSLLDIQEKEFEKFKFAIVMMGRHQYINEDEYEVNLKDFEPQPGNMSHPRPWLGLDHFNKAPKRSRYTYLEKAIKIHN
Ubiquitin carboxyl-terminal hydrolase 14 (Homo sapiens), sequence (P54578 whole entry, the tested form may be a part): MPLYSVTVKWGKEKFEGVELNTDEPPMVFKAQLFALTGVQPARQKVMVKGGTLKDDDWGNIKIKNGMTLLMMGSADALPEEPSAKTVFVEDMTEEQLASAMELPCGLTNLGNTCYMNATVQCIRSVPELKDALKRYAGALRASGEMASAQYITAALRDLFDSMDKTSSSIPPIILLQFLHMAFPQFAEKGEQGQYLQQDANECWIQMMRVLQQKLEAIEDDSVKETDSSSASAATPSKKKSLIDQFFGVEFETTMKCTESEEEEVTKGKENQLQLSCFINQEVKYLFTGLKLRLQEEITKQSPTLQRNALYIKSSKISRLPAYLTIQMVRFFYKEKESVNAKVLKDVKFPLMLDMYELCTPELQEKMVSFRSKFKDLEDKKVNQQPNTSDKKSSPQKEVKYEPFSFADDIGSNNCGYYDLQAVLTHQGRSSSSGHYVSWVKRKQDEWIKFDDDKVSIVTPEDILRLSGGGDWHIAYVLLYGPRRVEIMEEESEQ

For the compound `C=CC(=O)NNC(=O)CCc1ccccc1C(=O)N[C@H](C)c1cc(-c2cnn(C)c2)cc(-c2ccn(CC)n2)c1`, in [1], the pIC50 was 5.51. The same compound showed a CC50 at 48 h in data set [2] of more than 250000 nM.
On to `CCn1ccc(-c2cc(-c3cnn(C)c3)cc([C@@H](C)NC(=O)c3ccccc3CCC(=O)NNC(=O)/C=C/C(=O)N3CC(F)C3)c2)n1`, for which the pEC50 in data set [3] was 6.03. The half-life at 1 µM in data set [4] turned out to be 1.3 h. For the same compound, in [1], the pIC50 was 7.00. In data set [2], the CC50 at 48 h was more than 250000 nM.
The compound `CCn1ccc(-c2cc(-c3cnn(C)c3)cc([C@@H](C)NC(=O)c3cc(OCCN(C)C)ccc3C)c2)n1` had a pEC50 in [5] of 6.38.
With `C=CS(=O)(=O)NNC(=O)CCc1ccccc1C(=O)N[C@H](C)c1cc(-c2cnn(C)c2)cc(-c2ccn(CC)n2)c1`, in [1], the negative-log IC50 (pIC50) is 6.52. In [6], this compound gave a CC50 of 31000 nM.
In [1], `CCOC(=O)/C=C/C(=O)NNC(=O)CCc1ccccc1C(=O)N[C@H](C)c1cc(-c2cnn(C)c2)cc(-c2ccn(CC)n2)c1` had a pIC50 of 7.00.
The compound `CCn1ccc(-c2cc(-c3cnn(C)c3)cc([C@@H](C)NC(=O)c3ccccc3CCC(=O)NNC(=O)/C=C/C(=O)NC3CC3)c2)n1` had a pEC50 in [3] of 5.28. Further, the half-life at 1 µM in [4] is more than 2.42 h. Further, the negative-log IC50 (pIC50) in data set [1] is 6.70. The compound further gave a CC50 at 48 h in data set [2] of more than 250000 nM.
In turn, `CCn1ccc(-c2cc(-c3cnn(C)c3)cc([C@@H](C)NC(=O)c3ccccc3CCC(=O)NNC(=O)/C=C/C(=O)NC34CC(C3)C4)c2)n1` gave a pEC50 in [3] of 5.21. Further, in [1], the pIC50 is 7.00. For the same compound, in data set [2], the CC50 at 48 h was more than 250000 nM.
Take `CCOC(=O)/C=C/C(=O)NCC(=O)NCc1ccccc1C(=O)NC1(c2cc(-c3cnn(C)c3)cc(-c3ccn(CC)n3)c2)CC1`: the pIC50 in [1] is 5.96. For the same compound, the half-maximal cytotoxic concentration (CC50) at 48 h in [2] is more than 250000 nM.
With `CCn1ccc(-c2cc(-c3cnn(C)c3)cc([C@@H](C)NC(=O)c3ccccc3CCC(=O)NNC(=O)CCl)c2)n1`, the pIC50 in data set [1] was 6.52. This compound also showed a CC50 in [6] of more than 250000 nM.
Compound `CCn1ccc(-c2cc(-c3cnn(C)c3)cc(C3(NC(=O)c4ccccc4CNC(=O)CNC(=O)/C=C/C(=O)N4CC(F)(F)C4)CC3)c2)n1` showed a pIC50 in data set [1] of 5.80. The compound also returned a CC50 at 48 h in data set [2] of more than 250000 nM.
In the case of `CCn1ccc(-c2cc(-c3cnn(C)c3)cc([C@@H](C)NC(=O)c3ccccc3CCC(=O)NNC(=O)/C=C/CN(C)C)c2)n1`, the pIC50 in data set [1] was less than 5.30. In data set [2], this compound returned a CC50 at 48 h of more than 250000 nM.
As to `CC(C)(C)[C@H](NC(=O)C(F)(F)F)C(=O)N1C[C@H]2[C@@H]([C@H]1C(=O)N[C@H](C#N)C[C@@H]1CCNC1=O)C2(C)C`, the negative logarithm of the EC50 (pEC50) in data set [7] is 7.47; in [8], 7.43; in data set [11], 7.02. The “Ratio EC50” value was determined as 1.1 in data set [9] and 2.8 in data set [10].
In data set [3], `CCn1ccc(-c2cc(-c3cnn(C)c3)cc([C@@H](C)NC(=O)c3ccccc3CCC(=O)NNC(=O)/C=C/C(=O)OC(C)(C)C)c2)n1` showed a pEC50 of 7.00. The same compound gave a pIC50 in [1] of 7.00.
For `CCn1ccc(-c2cc(-c3cnn(C)c3)cc([C@@H](C)NC(=O)c3ccccc3CCC(=O)NNC(=O)C34CC(C3)C4)c2)n1`, in [2], the CC50 at 48 h is more than 250000 nM.
`CCn1ccc(-c2cc(-c3cnn(C)c3)cc([C@@H](C)NC(=O)c3ccccc3CNC(=O)CNC(=O)/C=C/C(=O)N3CC(F)(F)C3)c2)n1`: in data set [1], the pIC50 is 6.30. Also, the CC50 at 48 h in data set [2] is more than 250000 nM.
With `CCn1ccc(-c2cc(-c3cnn(C)c3)cc([C@@H](C)NC(=O)c3ccccc3CCC(=O)NNC(=O)C(Cl)Cl)c2)n1`, the pIC50 in data set [1] was 5.66. This compound also registered a CC50 at 48 h in data set [2] of more than 250000 nM.
Consider `CCn1ccc(-c2cc(-c3cnn(C)c3)cc([C@@H](C)NC(=O)c3ccccc3CCC(=O)NNC(=O)/C=C/C(=O)N3CC(C)(C)C3)c2)n1`, for which the half-life at 1 µM in [4] is 1.4 h. The Cmax in [12] is 995 ng/mL; in [13], less than 10 ng/mL. In [14], the AUClast was 2513 ng·h/mL. The CC50 at 48 h in data set [2] was more than 250000 nM.
`C#CCNC(=O)CCc1ccccc1C(=O)N[C@H](C)c1cc(-c2cnn(C)c2)cc(-c2ccn(CC)n2)c1`: the negative-log IC50 (pIC50) in [1] is 5.30. In [2], this compound had a CC50 at 48 h of 256000 nM.
`CCn1ccc(-c2cc(-c3cnn(C)c3)cc([C@@H](C)NC(=O)c3ccccc3CCC(=O)NNC(C)=O)c2)n1` had a CC50 at 48 h in [2] of more than 250000 nM.
In turn, `CCn1ccc(-c2cc(-c3cnn(C)c3)cc([C@@H](C)NC(=O)c3ccccc3CCC(=O)NNC(=O)/C=C/C(=O)N(C)C)c2)n1` showed a negative logarithm of the IC50 (pIC50) in data set [1] of 6.15. Besides, the CC50 at 48 h in [2] is more than 250000 nM.
The corresponding values for `CCn1ccc(-c2cc(-c3cnn(C)c3)cc([C@@H](C)NC(=O)c3ccccc3CCC(=O)NCCC#N)c2)n1` are less than 5.00 and 146000 nM.
In [1], `CCn1ccc(-c2cc(-c3cnn(C)c3)cc([C@@H](C)NC(=O)c3ccccc3CCC(=O)NNC(=O)/C=C/C(=O)N3CC(C(F)(F)F)C3)c2)n1` had a pIC50 of 7.00.
Regarding `CCn1ccc(-c2cc(-c3cnn(C)c3)cc([C@@H](C)NC(=O)c3ccccc3CCC(=O)NNC(=O)/C=C/C(=O)NC3CC(F)(F)C3)c2)n1`, in data set [3], the pEC50 was 5.62. In addition, the half-life at 1 µM in [4] came to 1.31 h. This compound gave a pIC50 in data set [1] of 6.70. In addition, in [2], the CC50 at 48 h was more than 250000 nM.
`CCn1ccc(-c2cc(-c3cnn(C)c3)cc([C@@H](C)NC(=O)c3ccccc3CCC(=O)NCC(=O)CF)c2)n1` displayed a CC50 at 48 h in [2] of more than 250000 nM.
Consider `CCn1ccc(-c2cc(-c3cnn(C)c3)cc([C@@H](C)NC(=O)c3ccccc3CCC(=O)NNC(=O)/C=C/C(=O)N3CCC3)c2)n1`, for which, in data set [3], the pEC50 was 5.49. For the same compound, the t1/2 in data set [4] (microsomes, 1 h, 1 µM) is more than 2.42 h. The same compound gave a Cmax in data set [13] of less than 10 ng/mL. In data set [1], this compound gave a pIC50 of 7.00. Further, in data set [2], the CC50 at 48 h was more than 250000 nM.
With `CCn1ccc(-c2cc(-c3cnn(C)c3)cc([C@@H](C)NC(=O)c3ccccc3CCC(=O)NNC(=O)/C=C/C(=O)N3CC(F)(F)C3)c2)n1`, the pEC50 in data set [3] is 6.73. Besides, the pKi is 8.87 in data set [15] and 9.60 in data set [17]. The inhibition result in data set [16] and in data set [18] was “inactive” in each case. In data set [1], this compound had a pIC50 of 7.00.
